The test concerns the target T1, canine TRPM8 (Canis lupus familiaris, UniProt Q1A7N1).
T1 construct: expressed in transfected cells
As to the kind of experiment: In Vitro Canine TRPM8 Functional Assay (icilin-induced intracellular Ca2+, FLIPR/FDSS). The test is classed as cell-based. To be noted: HEK293 cells stably expressing canine TRPM8; for inhibition at 0.2 µM: HEK293, 0.2 μM compound, icilin activation, read-out: % Inh @ 0.2 μM; for IC50: icilin at approx. 80% maximal response, eight-point concentration-response, read-out: IC50. The method, then:
The functional activity of representative compounds of the formula (I) of the present invention was quantified by measuring changes in intracellular calcium concentration using a Ca^2+-sensitive fluorescent dye. The changes in fluorescent signal were monitored by a fluorescence plate reader, either a FLIPR™ (Molecular Devices) or FDSS (Hamamatsu).
HEK293 cells stably expressing canine TRPM8 were routinely grown as monolayers in Dulbecco's minimum essential medium supplemented with 10% FBS, 2 mM L-glutamine, 100 units/mL penicillin, 100 ug/mL streptomycin and 400 μg/mL G418. Cells were maintained in 5% CO2 at 37° C. At 24 hr prior to assay, cells were seeded in black wall, clear-base poly-D-lysine coated 384-well plates (BD Biosciences, NJ, USA) at a density of 5,000 cells per well in culture medium and grown overnight in 5% CO2 at 37° C. On assay day, growth media was removed, and cells were loaded with Calcium 3 Dye (Molecular Devices) for 35 min at 37° C., under 5% CO2 and then incubated for 25 min at room temperature and atmosphere. Subsequently, cells were tested for agonist-induced increases in intracellular Ca^2+ levels using FLIPR™ or FDSS. Cells were treated with compounds of the formula (I) at varying concentrations and intracellular […] was measured for 5 min prior to the addition of icilin to all wells to achieve a final concentration that produces approximately an 80% maximal response.
Basal FI was subtracted prior to normalizing data to percent of maximal response. Curves were generated using the average of quadruplicate wells for each data point using nonlinear regression of either sigmoidal dose response or sigmoidal dose response (variable slope). Finally, the EC50 and IC50 values were calculated with the best-fit curve determined by GraphPad Prism

A word on the IC50: it is the concentration needed to halve the response being measured.

T1 sequence (Q1A7N1 1-1104): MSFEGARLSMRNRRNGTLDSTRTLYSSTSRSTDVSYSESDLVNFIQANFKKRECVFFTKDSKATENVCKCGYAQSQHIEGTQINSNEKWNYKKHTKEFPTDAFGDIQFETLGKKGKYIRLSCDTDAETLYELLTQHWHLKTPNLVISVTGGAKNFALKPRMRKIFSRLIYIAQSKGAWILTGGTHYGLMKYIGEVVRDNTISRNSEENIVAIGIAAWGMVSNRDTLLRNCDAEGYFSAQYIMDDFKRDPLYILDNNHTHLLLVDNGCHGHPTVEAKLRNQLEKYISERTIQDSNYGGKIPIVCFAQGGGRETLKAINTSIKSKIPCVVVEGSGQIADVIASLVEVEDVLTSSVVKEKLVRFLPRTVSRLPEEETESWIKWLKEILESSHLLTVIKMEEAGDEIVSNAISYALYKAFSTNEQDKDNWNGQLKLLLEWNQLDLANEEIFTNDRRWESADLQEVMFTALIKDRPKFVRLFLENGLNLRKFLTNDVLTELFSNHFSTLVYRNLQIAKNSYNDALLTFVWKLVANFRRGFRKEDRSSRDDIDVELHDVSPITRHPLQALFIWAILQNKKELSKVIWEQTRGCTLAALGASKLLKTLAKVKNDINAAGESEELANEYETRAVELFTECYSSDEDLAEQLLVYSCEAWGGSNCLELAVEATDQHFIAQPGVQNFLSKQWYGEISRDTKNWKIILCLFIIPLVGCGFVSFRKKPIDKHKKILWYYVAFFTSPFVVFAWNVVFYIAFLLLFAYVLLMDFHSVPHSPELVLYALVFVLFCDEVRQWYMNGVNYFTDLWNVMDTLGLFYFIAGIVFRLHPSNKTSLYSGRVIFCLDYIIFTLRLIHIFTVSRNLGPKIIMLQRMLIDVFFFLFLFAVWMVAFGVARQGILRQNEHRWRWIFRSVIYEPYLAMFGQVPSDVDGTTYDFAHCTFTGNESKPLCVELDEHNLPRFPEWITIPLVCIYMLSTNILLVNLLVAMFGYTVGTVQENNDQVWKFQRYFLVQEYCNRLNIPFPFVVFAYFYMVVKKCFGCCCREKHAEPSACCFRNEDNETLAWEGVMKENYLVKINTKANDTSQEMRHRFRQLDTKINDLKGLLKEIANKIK

Consider `Cn1c(N(Cc2ccc(F)c(C(F)(F)F)c2)S(C)(=O)=O)nc2ccccc21` [compound 17], for which the inhibition at 0.2 µM turned out to be 99% and the IC50 was 5 nM.

Turning to `Cc1ccc(S(=O)(=O)N(Cc2ccc(F)c(C(F)(F)F)c2)c2nc3ccccc3n2C)cc1` [compound 18], the inhibition at 0.2 µM amounted to 106% and the IC50 was 14 nM.

For the compound `Cn1c(N(Cc2ccc(SC(F)(F)F)cc2)S(=O)(=O)c2ccccc2)nc2ccccc21` [compound 19], the inhibition at 0.2 µM amounted to 101% and the IC50 was 1 nM.

In the case of `Cn1c(N(Cc2ccc(C(F)(F)F)c(F)c2)S(=O)(=O)c2ccccc2)nc2ccccc21` [compound 21], the inhibition at 0.2 µM was found to be 102% and the IC50 is 1 nM.

For `Cn1c(N(Cc2cc(C(F)(F)F)ccc2F)S(=O)(=O)c2ccccc2)nc2ccccc21` [compound 22], the inhibition at 0.2 µM came to 102% and the IC50 stood at 6 nM.

In the case of `Cn1c(N(Cc2ccc(OC(F)F)cc2)S(=O)(=O)c2ccccc2)nc2ccccc21` [compound 23], the inhibition at 0.2 µM is 102% and the half-inhibitory concentration (IC50) worked out at 2 nM.

For `CC(C)Cn1c(N(Cc2ccc(C(F)(F)F)cc2)S(=O)(=O)c2ccccc2)nc2ccccc21` [compound 24], the inhibition at 0.2 µM is 71% and the half-inhibitory concentration (IC50) stood at 77 nM.

As to `Cn1c(N(Cc2ccc(OC(F)(F)F)cc2)S(=O)(=O)c2ccc(Cl)cc2)nc2ccccc21` [compound 26], the inhibition at 0.2 µM was 102% and the IC50 turned out to be 11 nM.

For the compound `Cn1c(N(Cc2ccc(OC(F)(F)F)cc2)S(=O)(=O)c2ccc(C(F)(F)F)cc2)nc2ccccc21` [compound 27], the inhibition at 0.2 µM was 101% and the 50% inhibitory concentration (IC50) is 49 nM.

As for `Cn1c(N(Cc2ccc(C(F)(F)F)cc2)S(=O)(=O)c2ccc(F)cc2)nc2ccccc21` [compound 28], the inhibition at 0.2 µM was determined as 95% and the IC50 came to 6 nM.

In the case of `CCn1c(N(Cc2ccc(OC(F)(F)F)cc2)S(=O)(=O)c2ccccc2)nc2ccccc21` [compound 29], the inhibition at 0.2 µM turned out to be 95% and the IC50 was 5 nM.

As to `CCn1c(N(Cc2ccc(C(F)(F)F)cc2)S(=O)(=O)c2ccccc2)nc2ccccc21` [compound 30], the inhibition at 0.2 µM stood at 96% and the half-inhibitory concentration (IC50) was found to be 4 nM.

As to `Cn1c(N(Cc2ccc(C(F)(F)F)cc2)S(=O)(=O)c2ccc(C(F)(F)F)cc2)nc2ccccc21` [compound 31], the inhibition at 0.2 µM is 96% and the IC50 stood at 33 nM.

`Cn1c(N(Cc2ccc(OC(F)(F)F)cc2)S(=O)(=O)c2ccc(F)cc2)nc2ccccc21` [compound 32]: the inhibition at 0.2 µM was 94% and the IC50 is 6 nM.

In the case of `CCn1c(N(Cc2ccc(C(F)(F)F)c(F)c2)S(=O)(=O)c2ccccc2)nc2ccccc21` [compound 34], the inhibition at 0.2 µM was 102% and the IC50 came out at 7 nM.

Regarding `Cn1c(N(Cc2ccc(C(F)(F)F)c(F)c2)S(=O)(=O)c2ccc(F)cc2)nc2ccccc21` [compound 38], the inhibition at 0.2 µM came to 102% and the IC50 worked out at 11 nM.

For `Cn1c(N(Cc2ccc(C(F)(F)F)c(F)c2)S(=O)(=O)c2ccc(Cl)cc2)nc2ccccc21` [compound 39], the inhibition at 0.2 µM amounted to 102% and the IC50 was determined as 10 nM.

Consider `Cn1c(N(Cc2ccc(C(F)(F)F)c(F)c2)S(=O)(=O)c2ccc(C(F)(F)F)cc2)nc2ccccc21` [compound 40], for which the inhibition at 0.2 µM came out at 101% and the IC50 came out at 60 nM.

As for `Cn1c(N(Cc2ccc(C(F)(F)F)cc2)S(=O)(=O)c2ccc(Cl)cc2)nc2ccccc21` [compound 41], the inhibition at 0.2 µM stood at 102% and the IC50 is 9 nM.

For `Cn1c(N(Cc2ccc(C(F)(F)F)cc2)S(=O)(=O)c2ccccc2)nc2cc(F)ccc21` [compound 43], the inhibition at 0.2 µM was found to be 100% and the IC50 stood at 4 nM.

Take `CCn1c(N(Cc2ccc(C(F)(F)F)c(F)c2)S(=O)(=O)c2ccccc2)nc2cc(F)ccc21` [compound 48]: the inhibition at 0.2 µM is 100% and the IC50 was 7 nM.

Take `CC(C)Cn1c(N(Cc2ccc(OC(F)(F)F)cc2)S(=O)(=O)c2ccccc2)nc2ccccc21` [compound 49]: the inhibition at 0.2 µM came out at 81% and the IC50 worked out at 48 nM.

Consider `CC(C)Cn1c(N(Cc2ccc(C(F)(F)F)c(F)c2)S(=O)(=O)c2ccccc2)nc2ccccc21` [compound 50], for which the inhibition at 0.2 µM was 82% and the IC50 came out at 37 nM.

Turning to `CC(C)n1c(N(Cc2ccc(C(F)(F)F)c(F)c2)S(=O)(=O)c2ccccc2)nc2cc(Cl)ccc21` [compound 56], the inhibition at 0.2 µM came out at 96% and the IC50 was found to be 24 nM.

For the compound `Cn1c(N(Cc2ccc(OC(F)(F)F)cc2)S(=O)(=O)c2ccccc2)nc2cc(F)ccc21` [compound 57], the inhibition at 0.2 µM was 99% and the IC50 turned out to be 9 nM.

As for `Cn1c(N(Cc2ccc(C(F)(F)F)c(F)c2)S(=O)(=O)c2ccccc2)nc2cc(F)ccc21` [compound 58], the inhibition at 0.2 µM worked out at 99% and the IC50 worked out at 6 nM.

In the case of `O=S(=O)(c1ccccc1)N(Cc1ccc(OC(F)(F)F)cc1)c1nc2ccccc2n1CC(F)(F)F` [compound 59], the inhibition at 0.2 µM worked out at 76% and the IC50 worked out at 77 nM.

For the compound `CC(C)n1c(N(Cc2ccc(OC(F)(F)F)cc2)S(=O)(=O)c2ccccc2)nc2cc(Cl)ccc21` [compound 61], the inhibition at 0.2 µM is 96% and the IC50 was determined as 47 nM.

Turning to `O=S(=O)(c1ccccc1)N(Cc1ccc(OC(F)(F)F)cc1)c1nc2cccc3c2n1CCC3` [compound 62], the inhibition at 0.2 µM amounted to 100% and the IC50 was 19 nM.

As for `O=S(=O)(c1ccccc1)N(Cc1ccc(C(F)(F)F)c(F)c1)c1nc2cccc3c2n1CCC3` [compound 63], the inhibition at 0.2 µM is 101% and the IC50 was 22 nM.

`O=S(=O)(c1ccccc1)N(Cc1ccc(C(F)(F)F)cc1)c1nc2cccc3c2n1CCC3` [compound 65]: the inhibition at 0.2 µM was found to be 101% and the IC50 was found to be 17 nM.

On to `Cc1ccc2nc(N(Cc3ccc(OC(F)(F)F)cc3)S(=O)(=O)c3ccccc3)n(C)c2c1` [compound 66], for which the inhibition at 0.2 µM is 98% and the IC50 stood at 21 nM.

Regarding `Cc1ccc2nc(N(Cc3ccc(C(F)(F)F)cc3)S(=O)(=O)c3ccccc3)n(C)c2c1` [compound 68], the inhibition at 0.2 µM is 99% and the half-maximal inhibitory concentration (IC50) was 24 nM.

Take `O=S(=O)(c1ccccc1)N(Cc1ccc(OC(F)(F)F)cc1)c1nc2ccccc2n1CC1CC1` [compound 69]: the inhibition at 0.2 µM came to 101% and the half-inhibitory concentration (IC50) was found to be 26 nM.

With `O=S(=O)(c1ccccc1)N(Cc1ccc(C(F)(F)F)cc1)c1nc2ccccc2n1CC1CC1` [compound 70], the inhibition at 0.2 µM came out at 101% and the IC50 came to 35 nM.

Regarding `Cc1cc2nc(N(Cc3ccc(OC(F)(F)F)cc3)S(=O)(=O)c3ccccc3)n(C)c2cc1C` [compound 74], the inhibition at 0.2 µM turned out to be 99% and the IC50 worked out at 19 nM.

Take `Cc1cc2nc(N(Cc3ccc(C(F)(F)F)c(F)c3)S(=O)(=O)c3ccccc3)n(C)c2cc1C` [compound 75]: the inhibition at 0.2 µM worked out at 101% and the IC50 is 28 nM.

Regarding `Cc1cccc2c1nc(N(Cc1ccc(C(F)(F)F)c(F)c1)S(=O)(=O)c1ccccc1)n2C` [compound 76], the inhibition at 0.2 µM was determined as 101% and the IC50 worked out at 9.4 nM.

For the origin of these results see patent US8242157B2, “Benzimidazole derivatives useful as TRPM8 channel modulators” (Janssen Pharmaceutica NV, priority 2009, dated 2012).
